Results as given in article PMC7125202, “Targeting of radioactive platinum-bisphosphonate anticancer drugs to bone of high metabolic activity” (Scientific Reports, 2020).
Entries after “also recorded” stand apart in the source; their conditions may differ.

What was measured:
[1] = tested on: lateral line neuromast hair cells; assay: Ototoxicity assay, DASPEI staining; assay type: in vivo, zebrafish (Danio rerio); settings: 48 h post treatment, 5, 10 and 50 µM
Description: The lateral line neuromast hair cells in embryos were stained with a vital dye to analyse the loss of hair cells after Pt-BP treatment. Cisplatin was used as a control, as it was known to affect hair cells in humans. The fluorescent dye 2-[4-(dimethylamino)styryl]-N-ethylpyridinium iodide (DASPEI) [Molecular Probes, Eugene, OR] was used to stain hair cells in the neuromast as described previously. Larvae were incubated in embryo medium containing 0.005% DASPEI for 15 min, anesthetized in Tricaine MS222 (10 µg/ml) for 5 min, rinsed once in fresh embryo medium, and imaged using Vertebrate automated screening technology (VAST, Union Biometrica), combined with high-speed and super-resolution Zeiss cell observer spinning disk confocal system. The quantification of number of neuromast hair cells in the treated embryos was done manually with confocal microscopy (Zeiss LSM780).

zebrafish embryos = assay: Phenotypic assessment of drug-treated zebrafish embryos; assay type: in vivo, zebrafish (Danio rerio); settings: up to a concentration of 100 µM, until 2 days post treatment
Description: The zebrafish (Danio rerio) strains were kept under standard conditions (28 °C in E3 buffer) until 48 hours post fertilization (hpf) as described previously. All animal experiments were conducted at larval stages before the point of independent feeding and were in agreement with the animal protection law (Tierschutzgesetz).
48 hpf wildtype embryos were separated into 6 groups (n = 20 embryos/group), i.e., control (untreated) and embryos treated with 5 µM, 10 µM, 50 µM, and 100 µM Pt-BP as well as 30 µM cisplatin. Both types of compounds were added externally to the medium and the embryos were incubated at 33 °C for the duration of the experiment. The embryos were assessed each day for phenotypic toxicity until 2 days post treatment (48 hpt) and imaged live in an Olympus MVX10 microscope.

[2] = Pt-BP pH stability assessed by 31P NMR; assay type: physicochemical; settings: 120 mM NaCl, D2O, 37 °C
Description: ^31P NMR spectra were recorded on a Bruker Avance III […] instrument. Standard pulse sequences were used for ^31P{1H} (121.5 MHz) spectra. Chemical shifts (^31P) were referenced to external H3PO4 (85% w/w; 0 ppm). A Crison Micro-pH meter Model 2002, equipped with Crison microcombination electrodes (5- and 3-mm diameter) and calibrated with Crison standard buffer solution at pH 4.01, 7.02, and 10.00, was used for pH measurements. The pH readings from the pH meter for D2O solutions are indicated as pD values and are uncorrected for the effect of deuterium on glass electrodes. The stability of Pt-BP in buffered solutions at 37 °C was assessed by ^31P NMR spectroscopy as previously reported. Pt-BP (∼4 mg) was dissolved in 0.8 mL of D2O containing (i) 50 mM 4-(2-hydroxyethyl)-1-piperazineethanesulfonic acid) (HEPES) buffer (pD = 7.4) and 120 mM NaCl or (ii) 50 mM 2-(N-morpholino)ethanesulfonic acid (MES) buffer (pD = 5.25) and 120 mM NaCl. The resulting two solutions were transferred into NMR tubes and maintained at 37 °C. ^31P NMR spectra were recorded over a period of 15 days. The relative concentrations of the individual species in solution were deduced from integration of the ^31P signals.
To investigate the stability of Pt-BP in near-physiological conditions, we utilized a medium consisting of D2O containing HEPES buffer (50 mM, pH = 7.4) and NaCl (120 mM) at 37 °C, in which we analyzed Pt-BP stability by ^31P-NMR spectroscopy. […] Two other asymmetrical species are visible in the ^31P-NMR spectrum recorded after 3 h as evidenced by the two pairs of doublets falling at 28.15 and 22.98 ppm and 26.25 and 21.51 ppm (indicated by the black squares and diamonds in Supplement Fig. 2A). […]
To simulate the acidic environment in tumor tissue^3,4, we explored the stability of Pt-BP complexes at pD = 5.25 at 37 °C by ^31P-NMR spectroscopy (Supplement Fig. 2B). […] However, the formation of M was slower at acidic pD, while its hydrolysis, with concomitant formation of free bisphosphonate (BP), was faster than at pD 7.4 since Pt-BP and BP were detected after 48 h (Supplement Fig. 2B).

[3] = cited from earlier work

NCCN.NCCN.O.O.O.O=S(=O)([O-])O.[NH3+]CC1(O)P2(=O)[O][Pt][O]P1(=O)[O][Pt][O]2 (stereo not shown) [Pt-BP, dinuclear bis<ethylenediamineplatinum(II) > -2-amino-1-hydroxyethane-1,1-diyl-bisphosphonate complex]
ototoxic effect (lateral line neuromast hair cell quantification) [1]: dose-dependent ototoxic effect | visible phenotypic effects (zebrafish embryos): did not show any phenotypic abnormality; also recorded: no visible phenotypic effects | time of release of both Pt(en) moieties (free BP detected) ([2]; pD 5.25, 50 mM MES): 48 h | time after which no traces of the starting Pt-BP complex were observed ([2]; pD 7.4, 50 mM HEPES): ≤ 24 h | time of release of the second Pt(en) moiety (appearance of free BP) ([2]; pD 7.4, 50 mM HEPES): 96 h | stability in neutral aqueous solution ([3]; pH 7.0, room temperature): stable in neutral aqueous solution (pH 7.0, room temperature) for several months | stability in water at pH > 8.0 ([3]; pH > 8.0): rearranges rather than decomposes
